Measured values reported in article PMC5601486, “Identification of 4-phenylquinolin-2(1H)-one as a specific allosteric inhibitor of Akt” (Scientific Reports, 2017).

Tests used:
[1] = tested on: RPS6KA5(Kin.Dom.1-N-terminal); experiment: KINOMEscan; conditions: 50000 nM
Description: KINOMEscan™ selectivity screen
(§4) The assay was perfor med at DiscoveRx Corporation according the methods published previously5. Briefly, Kinase-tagged T7 phage strains were grown in parallel in an E. coli host derived from the BL21 strain. E. coli were grown to log-phase and infected with T7 phage from a frozen stock and incubated with shaking at 32°C until lysis (90-150 minutes). The kinases were produced in HEK-293 cells and subsequently tagged with DNA for qPCR detection. Streptavidin-coated magnetic beads were treated with biotinylated small molecule ligands to generate affinity resins for kinase
(§5) inhibitor or DMSO control was performed in polypropylene 384-well plates for 1 hr at room temperature. After wash with PBS buffer containing 0.05% Tween 20, the beads were incubated in elution buffer (PBS containing 0.05 % Tween 20 and 0.5 μM non-biotinylated affinity ligand) for 30 minutes at room temperature. The kinase concentration in the eluates was measured by qPCR.

PDK1 = tested on: T1, PDK1; experiment: ADP-Glo kinase assay; type: biochemical; conditions: 50 µM
T1 construct: purchased Promega V2761
Description: (§1) Elisa Assay for phosphorylation of Akt
(§2) Neuro 2A cells in 48-well plates were incubated with the inhibitor for 30 minutes at 37°C followed by IGF stimulation for 30 min. Cells were lysed and subjected to Elisa assay using an Akt (S473) InstantOne Elisa kit (ThermoFisher Scientific, # 8586042-11) in accordance with manufacturer ’s instruction.
(§3) An ADP-GloTM kinase assay kit (Promega, # V9101) was used to measure the activity of PDK1 or SGK1 in accordance with the manufacturer’s instructions. For PDK1 assay, the reaction mixture included 5 µM ATP, 50 µM inhibitor, 100 ng recombinant PDK1 and 2 µg PDKtide substrate (Promega, #V2761) prior to the addition of the ADP-Glo reagents. For SGK1, 5 µM ATP, 50 µM inhibitor, 10 ng SGK1 and 1 µg Akt substrate peptide (Promega, #V2911) were used. Staurosporine at concentration between 0.4 and 4,000 nM or the SGK1 inhibitor GSK-650394 (Tocris Bioscience) between 7 and 2,000 nM were used as controls for PDK1 or SGK1 assay respectively. For PI3K assay, 50 µM ATP, 50 µM inhibitor, 100 ng recombinant PI3 kinase (SignalChem, Richmond, Canada, # P27-10H-05) and 1.5 mg/mL multilamellar phospholipid vesicles containing PC/PE/PS/PIP2 (at mass ratio of 1/0.5/0.2/0.1) were used. Inhibitor blanks as well as LY-294002 between 78 and […]

SGK1 = tested on: T2, SGK1; experiment: ADP-Glo kinase assay; type: biochemical; conditions: 50 µM
T2 construct: purchased Promega V2911
Description: as §1, §2, §3

MYO3B = experiment: KINOMEscan; conditions: 50000 nM
Description: KINOMEscan™ selectivity screen
as §4, §5

ERBB2 = experiment: KINOMEscan; conditions: 50000 nM
Description: KINOMEscan™ selectivity screen
as §4, §5

CAMK4 = experiment: KINOMEscan; conditions: 50000 nM
Description: KINOMEscan™ selectivity screen
as §4, §5

MEK3 = experiment: KINOMEscan; conditions: 50000 nM
Description: KINOMEscan™ selectivity screen
as §4, §5

ADCK4 = experiment: KINOMEscan; conditions: 50000 nM
Description: KINOMEscan™ selectivity screen
as §4, §5

NEK10 = experiment: KINOMEscan; conditions: 50000 nM
Description: KINOMEscan™ selectivity screen
as §4, §5

ASK2 = experiment: KINOMEscan; conditions: 50000 nM
Description: KINOMEscan™ selectivity screen
(§6) Briefly, Kinase-tagged T7 phage strains were grown in parallel in an E. coli host derived from the BL21 strain. E. coli were grown to log-phase and infected with T7 phage from a frozen stock and incubated with shaking at 32°C until lysis (90-150 minutes). The kinases were produced in HEK-293 cells and subsequently tagged with DNA for qPCR detection. Streptavidin-coated magnetic beads were treated with biotinylated small molecule ligands to generate affinity resins for kinase
as §5

PRKX = experiment: KINOMEscan; conditions: 50000 nM
Description: KINOMEscan™ selectivity screen
as §4, §5

PDGFRA = experiment: KINOMEscan; conditions: 50000 nM
Description: KINOMEscan™ selectivity screen
as §4, §5

Akt = tested on: T3, Akt; experiment: In vitro phosphorylation of Akt S473 by MAPKAP kinase 2; type: biochemical; conditions: inactive Akt, PE/PC/PS/PIP3 vesicles
T3 construct: purchased Millipore 14-279

PAK7 = experiment: KINOMEscan; conditions: 50000 nM
Description: KINOMEscan™ selectivity screen
as §4, §5

FLT3(D835H) = experiment: KINOMEscan; conditions: 50000 nM
Description: KINOMEscan™ selectivity screen
as §4, §5

EPHA3 = experiment: KINOMEscan; conditions: 50000 nM
Description: KINOMEscan™ selectivity screen
as §4, §5

RET(M918T) = experiment: KINOMEscan; conditions: 50000 nM
Description: KINOMEscan™ selectivity screen
as §4, §5

TRKA = experiment: KINOMEscan; conditions: 50000 nM
Description: KINOMEscan™ selectivity screen
as §4, §5

MAP3K2 = experiment: KINOMEscan; conditions: 50000 nM
Description: KINOMEscan™ selectivity screen
as §4, §5

MEK4 = experiment: KINOMEscan; conditions: 50000 nM
Description: KINOMEscan™ selectivity screen
as §4, §5

EGFR(L858R) = experiment: KINOMEscan; conditions: 50000 nM
Description: KINOMEscan™ selectivity screen
as §4, §5

IRAK1 = experiment: KINOMEscan; conditions: 50000 nM
Description: KINOMEscan™ selectivity screen
as §4, §5

FLT3(ITD,F691L) = experiment: KINOMEscan; conditions: 50000 nM
Description: KINOMEscan™ selectivity screen
as §4, §5

[2] = tested on: TYK2(JH1domain-catalytic); experiment: KINOMEscan; conditions: 50000 nM
Description: KINOMEscan™ selectivity screen
as §4, §5

ZAP70 = experiment: KINOMEscan; conditions: 50000 nM
Description: KINOMEscan™ selectivity screen
as §6, §5

JNK1 = experiment: KINOMEscan; conditions: 50000 nM
Description: KINOMEscan™ selectivity screen
as §4, §5

MARK2 = experiment: KINOMEscan; conditions: 50000 nM
Description: KINOMEscan™ selectivity screen
as §6, §5

[3] = tested on: ABL1(T315I)-nonphosphorylated; experiment: KINOMEscan; conditions: 50000 nM
Description: KINOMEscan™ selectivity screen
as §6, §5

VRK2 = experiment: KINOMEscan; conditions: 50000 nM
Description: KINOMEscan™ selectivity screen
as §4, §5

FYN = experiment: KINOMEscan; conditions: 50000 nM
Description: KINOMEscan™ selectivity screen
as §4, §5

## Oc1cc(-c2ccccc2)c2ccccc2n1 [G7, 4-phenylquinolin-2(1H)-one]
[1]
  Percent Control: 89%
PDK1
  effect on PDK1 activity: no effects
SGK1
  effect on SGK1 activity: no effects
MYO3B
  Percent Control: 100%
ERBB2
  Percent Control: 98%
CAMK4
  Percent Control: 100%
MEK3
  Percent Control: 81%
ADCK4
  Percent Control: 96%
NEK10
  Percent Control: 66%
ASK2
  Percent Control: 78%
PRKX
  Percent Control: 76%
PDGFRA
  Percent Control: 52%
Akt
  in vitro phosphorylation of S473 by MAPKAP kinase 2: impaired
PAK7
  Percent Control: 57%
FLT3(D835H)
  Percent Control: 34%
EPHA3
  Percent Control: 66%
RET(M918T)
  Percent Control: 70%
TRKA
  Percent Control: 65%
MAP3K2
  Percent Control: 63%
MEK4
  Percent Control: 93%
EGFR(L858R)
  Percent Control: 83%
IRAK1
  Percent Control: 53%
FLT3(ITD,F691L)
  Percent Control: 40%
[2]
  Percent Control: 72%
ZAP70
  Percent Control: 100%
JNK1
  Percent Control: 75%
MARK2
  Percent Control: 65%
[3]
  Percent Control: 86%
VRK2
  Percent Control: 82%
FYN
  Percent Control: 89%
